Test results reported in PMC10326281, “Insights into the mechanisms governing P01 scorpion toxin effect against U87 glioblastoma cells oncogenesis” (Frontiers in Pharmacology, 2023).
In brackets after ≈: the same amount, converted by molar mass. Where a SMILES comes first, the peptide text is derived from it. Bridges are numbered along the chain shown (N, C = ends).

Key:
U87 glioblastoma cells [1] = assay: Cell viability (MTT), U87; format: cell-based, human; settings: 25–200 μg/mL, 24 h, 10,000 cells per well, n = 3
Source text: (§1) The ATCC (American Type Culture Collection, Rockville, MD, United States) cancer cell lines U87 (glioblastoma), MDA-MB231 (breast cancer) and LS174 (colon adenocarcinoma) were routinely cultured in DMEM supplemented with 10% fœtal bovine serum (FBS), 1% l-glutamine and 100 IU/mL penicillin/streptomycin. […] Rat SK2 cDNA cloned into pJA5 plasmid was a gift from Dr. Skolnik (university Langone Medical center, New York). Human SK3 cDNA cloned into Pipru vector was a king gift from Pr. Soriani (Université Côte d’Azur, CNRS, Inserm, Nice, France).
The human cell lines U87, MDA-MB231, or LS174 (10,000 cells per well) were treated with P01 peptide at different concentrations (25; 50; 100 and 200 μg/mL). After 24 h, the wells were washed with phosphate-buffered saline (PBS) and then the 3-(4,5-dimethylthiazol-2-yl)-2,5-diphenyltetrazolium bromide (MTT) (0.5 mg/mL) was added to the cells as previously described ([Kouba et al., 2020]). The crystals formed after the reduction of MTT by mitochondrial dehydrogenases were dissolved with dimethylsulfoxyde (DMSO). The quantification of live cells was achieved by measuring absorbance at 560 nm using a spectrophotometer (Thermo-Multiskan EX, Shanghai, China).

[2] = test system: MDA-MB231 breast cancer cells; assay: Cell migration assay (modified Boyden chamber), MDA-MB231; format: cell-based, human; settings: 50 μg/mL, 5 h, fibronectin 10 μg/mL coating, n = 3
Source text: as §1
(§2) Cell migration assay was performed using modified Boyden chamber (NeuroProbe Inc., Bethesda, MD, United States) as previously described ([Sarray et al., 2007]). Membranes were coated with fibrinogen (Fg) (50 μg/mL), fibronectin (Fn) (10 μg/mL), collagen type I (Coll-I) (50 μg/mL) for U87, MDA-MB231 and LS174 cells respectively, for 2 h at 37°C. Cells were harvested as a single cell suspension (10^6 cells/mL) and treated with P01 at 50 μg/mL. Then added to pre-coated membranes and allowed to migrate for 5 h at 37°C in Boyden chamber. Cells were fixed on the underside of the membrane, stained by 0.1% crystal violet and migration was quantified by measuring the absorbance at 560 nm using a spectrophotometer (Thermo-Multiskan EX, Shanghai, China).

[3] = test system: LS174 colon adenocarcinoma cells; assay: Cell migration assay (modified Boyden chamber), LS174; format: cell-based, human; settings: 50 μg/mL, 5 h, collagen type I 50 μg/mL coating, n = 3
Source text: as §1, §2

U87 glioblastoma cells [4] = assay: Cell adhesion assay, U87; format: cell-based, human; settings: n = 3; for inhibition of adhesion: 50 μg/mL P01, 2 h
Source text: as §1
Adhesion assays were performed as previously described by ([Sarray et al., 2007]). Glioblastoma U87 cells in suspension (10^6 cells/mL) were treated with 50 μg/mL of P01 and deposited on wells coated with purified extracellular matrix (ECM): Fg at 50 μg/mL; Fn at 10 μg/mL; Coll-I at 50 μg/mL; laminin (Lam) at 15 μg/mL or poly-L-lysine (PL) at 20 μg/mL for U87. MDA-MB231 and LS174 cells were also used in their adequate ECM: Fg and Coll-I respectively. They were incubated to adhere to the substrate for 2 h or 24 h at 37°C. After washing, attached cells were fixed, stained by 0.1% crystal violet, lysed with 1% SDS and quantified by measuring absorbance at 560 nm. The specific adhesion is obtained by subtracting the absorbance obtained in the absence of adhesion substrate (no specific control). To study the dose-response effect, different concentrations of P01 were used (25–100 μg/mL) and the IC50 value was determined.

α1β1 integrin = assay: U87 cell adhesion in presence of anti-integrin antibodies, α1β1; format: cell-based, human; settings: 50 μg/mL P01, 30 min pre-incubation, 2 h at 37°C, anti-α1β1 (1/200), n = 3
Method: (§3) To study the implication of integrins in the P01 peptide activity, adhesion assays using anti-integrin blocking antibodies: anti- α1β1 (1/200), anti- αvβ3 (1/200), anti- α5 (1/200) and anti- β3 (1/200) were performed as described above, except that cells were pretreated with the active peptide P01 at 50 μg/mL.

αvβ3 integrin = assay: U87 cell adhesion in presence of anti-integrin antibodies, αvβ3; format: cell-based, human; settings: 50 μg/mL P01, 30 min pre-incubation, 2 h at 37°C, anti-αvβ3 (1/200), n = 3
Method: as §3

α5 integrin = assay: U87 cell adhesion in presence of anti-integrin antibodies, α5; format: cell-based, human; settings: 50 μg/mL P01, 30 min pre-incubation, 2 h at 37°C, anti-α5 (1/200), n = 3
Method: as §3

β3 integrin = assay: U87 cell adhesion in presence of anti-integrin antibodies, β3; format: cell-based, human; settings: 50 μg/mL P01, 30 min pre-incubation, 2 h at 37°C, anti-β3 (1/200), n = 3
Method: as §3

[5] = test system: SK2 currents of U87 cells; assay: Whole-cell patch clamp, K+ currents of U87 cells; format: cell-based, human; settings: P01 125 pM vs Leidab-7 50 nM, ns between treatments
Source text: For U87 cells, whole-cell K^+ currents were generated by stepwise 8 mV depolarizing pulses from a constant holding potential of −90 up to +60 mV. The composition of extracellular solution is the same as that described above and the intracellular pipette solution is as follows in mM: K-glutamate 125, KCl 20, MgCl2 1, Mg-ATP 1, HEPES 10, CaCl2 0.7, EGTA 1, and pH was adjusted to 7.2 with KOH. The pCa is of 6.4 (10^−6.4 M of calcium concentration). Leidab-7 (Tocris, France) was used as reference peptide to selectively block SK2 currents in U87 cells.

SK2 channel = settings: Jurkat cells; ref Shakkottai et al., 2001; cited from earlier work
Source text: (§4) This can be explained by the differential expression of either functional SK2 isoforms or other membrane receptors between HEK293 and Jurkat cells.

SK3 channel = settings: Jurkat cells; ref Shakkottai et al., 2001; cited from earlier work
Source text: as §4

CC[C@H](C)[C@H](NC(=O)[C@@H]1CCCN1C(=O)[C@H](CCC(=O)O)NC(=O)[C@@H]1CSSC[C@@H]2NC(=O)[C@H](Cc3c[nH]cn3)NC(=O)[C@H](CCC(=O)O)NC(=O)[C@@H]3CCCN3C(=O)[C@@H]3CSSC[C@H](NC(=O)[C@H](CCCCN)NC(=O)[C@H](CC(=O)O)NC(=O)[C@H](CC(N)=O)NC(=O)[C@H](CC(=O)O)NC(=O)[C@H](CSSC[C@H](NC(=O)[C@H](CO)NC(=O)[C@@H](N)C(C)C)C(=O)N[C@@H](CCC(=O)O)C(=O)N[C@@H](CC(=O)O)C(=O)N3)NC(=O)[C@H](CCCCN)NC(=O)[C@H](C)NC(=O)[C@H](CCC(N)=O)NC(=O)[C@H](C)NC(=O)[C@H](CCCCN)NC(=O)[C@H](CCC(N)=O)NC(=O)[C@H]([C@@H](C)O)NC(=O)[C@H](CO)NC2=O)C(=O)N[C@@H](C(C)C)C(=O)N1)C(=O)O [P01] (H-VSCEDCPEHCSTQKAQAKCDNDKCVCEPI-OH; disulfide 3-19, 6-24, 10-26 (inferred); N-terminus and C-terminus assumed)
cytotoxic effect (cell viability) (U87 glioblastoma cells [1]): did not have a cytotoxic effect | effect on migration [2]: no effect | effect on migration [3]: no effect | effect on adhesion after 24 h, Fg and Fn (U87 glioblastoma cells [4]; Fg and Fn, 50 μg/mL P01, 24 h): stayed active on Fg and Fn | inhibition of adhesion (U87 glioblastoma cells [4]; fibrinogen (Fg), 37°C): 41% | IC50 (adhesion to Fg) (U87 glioblastoma cells [4]; fibrinogen, 25–100 μg/mL, 2 h): 48.86 µg/mL (≈ 15.4 µM) | inhibition of adhesion (U87 glioblastoma cells [4]; fibronectin (Fn), 37°C): 38% | IC50 (adhesion to Fn) (U87 glioblastoma cells [4]; fibronectin, 25–100 μg/mL, 2 h): 62.04 µg/mL (≈ 19.5 µM) | inhibition of adhesion (U87 glioblastoma cells [4]; poly-L-lysine (Pl)): no inhibition could be observed | effect on adhesion after 24 h, Pl (U87 glioblastoma cells [4]; poly-L-lysine (Pl), 50 μg/mL P01, 24 h): an inhibition effect on Pl appeared | effect on adhesive function of α1β1 (α1β1 integrin): reduced the adhesive function | effect on adhesive function of αvβ3 (αvβ3 integrin): reduced the adhesive function | effect on adhesive function of α5 (α5 integrin): reduced the adhesive function | effect on cell adhesion through β3 (β3 integrin): not able to alter cell adhesion | current density-voltage relationship compared with Leidab-7 [5]: similar | blocking activity on SK2 (SK2 channel): little or no blocking activity | blocking activity on SK3 (SK3 channel): little or no blocking activity
